Assay [1] deals with Peptococcus magnus KY 017. Briefly: In vitro antibacterial activity, MIC (standard strain). It is filed as cell-based. The conditions noted are these: Finegoldia magna, KY017, Peptococcus magnus KY 017, 10^6 cells/ml.
The subject of assay [2] is P. aeruginosa IID 1210. Briefly: MIC against the infecting strain (Table 2). The settings on record: Pseudomonas aeruginosa, IID1210; P. aeruginosa IID 1210 (Table 2, part 3). The format is cell-based.
The test system of the next assay is S. aureus Smith. Briefly: MIC against the infecting strain (Table 2). The conditions noted are these: Staphylococcus aureus; S. aureus Smith (Table 2, part 5). The format is cell-based.
Assay [3] concerns P. aeruginosa IID 1210. The assay can be described thus: In vivo antibacterial activity against systemic infection in mice.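 Further: ED50 in mg/kg.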 Also on record: species or system mice (ICR-S). The conditions noted are these: Pseudomonas aeruginosa, IID1210; P. aeruginosa IID 1210, mice (ICR-S), intraperitoneal infection, oral at 1 hour after infection, challenge dose 2.5 x 10^5 cfu/mouse; read-out: ED50.

Where a name gives a salt, the structure may show the parent alone.

The term MIC denotes the lowest concentration that inhibits growth of the organism. Low readings indicate greater potency, high ones weaker potency. Usually ED50 stands for the dose that gives a 50% effect, or the effect in half of the subjects. Consider `CC1CN(c2c(F)cc3c(=O)c(C(=O)O)cn(C4CC4)c3c2Cl)CCN1` (stereo not drawn) [Example 5, 8-Chloro-l-cyclopropyl-6-fluoro-1,4-dihydro-7-(3-methyl-1-piperazinyl)-4-oxoquinoline-3-carboxylic acid hydrochloride], for which the values for the MIC (in assay [1]; in the assay with P. aeruginosa IID 1210 [2]; against S. aureus Smith) were 0.1 µg/mL, 0.78 µg/mL and 0.1 µg/mL, respectively. Also, in the assay on P. aeruginosa IID 1210 [3], the ED50 was found to be 3.2 mg/kg.

(Values after patent EP0178388A1, “Quinolinecarboxylic acid derivatives” (KYORIN PHARMACEUTICAL CO., LTD., priority 1984, dated 1986).)
